Experimental findings from patent US20250262201A1, “COMPOUNDS AND METHODS USEFUL FOR STABILIZING PHENYLALANINE HYDROXYLASE MUTATIONS” (Agios Pharmaceuticals, Inc., priority 2022, published 2025) are described below.

In the assay the target is T1, human PAH with the R408W mutation (Homo sapiens, UniProt P00439, R408W).
T1 construct: expressed in transfected cells
T1 sequence (P00439 1-452 R408W): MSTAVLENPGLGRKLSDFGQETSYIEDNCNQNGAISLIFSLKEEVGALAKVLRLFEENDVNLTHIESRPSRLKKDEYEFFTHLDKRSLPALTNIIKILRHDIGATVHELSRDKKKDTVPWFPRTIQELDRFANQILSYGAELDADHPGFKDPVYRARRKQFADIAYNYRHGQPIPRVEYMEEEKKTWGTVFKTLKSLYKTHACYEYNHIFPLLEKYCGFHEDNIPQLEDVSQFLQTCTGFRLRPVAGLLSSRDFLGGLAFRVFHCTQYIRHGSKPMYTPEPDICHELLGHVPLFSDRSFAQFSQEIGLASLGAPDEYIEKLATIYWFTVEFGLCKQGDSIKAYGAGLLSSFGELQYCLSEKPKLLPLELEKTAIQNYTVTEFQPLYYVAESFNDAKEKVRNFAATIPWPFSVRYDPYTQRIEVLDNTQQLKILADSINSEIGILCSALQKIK
Kind of assay: Cell Based Phenylalanine Flux Assay. Details: scale not given here. Particulars: 13C-Tyrosine by LC-MS, average where tested multiple times.

The mark [1] stands for this setting: A375 cells expressing human R408W PAH, 24 hrs compound incubation, read-out: AC50.
[2] abbreviates: A375 R408W cells, 24 hrs with compound, then 20 μM sepiapterin and 800 μM 13C9,15N-Phenylalanine for 4 hours, read-out: AC50.

Like-named read-outs stand apart in the source and are kept apart here. Where only a bound is given, the exact number is not on record here.

Turning to `COc1ccc(-c2nnc(C(=O)N3CCc4[nH]cnc4[C@H]3c3cc4ccccc4cn3)o2)nc1` [Example 438, (R)-(4-(isoquinolin-3-yl)-6,7-dihydro-1H-imidazo[4,5-c]pyridin-5(4H)-yl)(5-(5-methoxypyridin-2-yl)-1,3,4-oxadiazol-2-yl)methanone], the AC50 under setting [1] was under 500 nM.
Turning to `O=C(c1cn[nH]c1)N1CCc2[nH]cnc2C1c1ccc2ccccc2n1` (stereo not drawn), the AC50 under setting [2] is 1000 to 5000 nM.
As to `O=C(c1cnco1)N1CCc2[nH]cnc2C1c1cc2ccccc2nn1` (stereo not drawn), under setting [2], the AC50 lay in the range of 1000 to 5000 nM.
For `Cc1nc(C(C)(C)C#N)oc1C(=O)N1CCc2[nH]cnc2C1c1ccc2ccccc2n1` (stereo in doubt) [Example 118, (R)-2-methyl-2-(4-methyl-5-(4-(quinolin-2-yl)-4,5,6,7-tetrahydro-1H-imidazo[4,5-c]pyridine-5-carbonyl)oxazol-2-yl)propanenitrile], the half-maximal activity concentration (AC50) under setting [1] is under 500 nM.
Consider `CC(C)(F)c1nnc(C(=O)N2CCc3[nH]cnc3C2c2ccc3ccccc3n2)o1` (stereo in doubt) [Example 106, (S)-(5-(2-fluoropropan-2-yl)-1,3,4-oxadiazol-2-yl)(4-(quinolin-2-yl)-6,7-dihydro-1H-imidazo[4,5-c]pyridin-5(4H)-yl)methanone], for which the AC50 under setting [1] lay within 1000 to 5000 nM.
As for `CC(C)(F)c1ncc(C(=O)N2CCc3[nH]cnc3[C@@H]2c2cn3ccccc3n2)s1` [Example 247, (S)-(2-(2-fluoropropan-2-yl)thiazol-5-yl)(4-(imidazo[1,2-a]pyridin-2-yl)-6,7-dihydro-1H-imidazo[4,5-c]pyridin-5(4H)-yl)methanone], the AC50 under setting [1] was over 5000 nM.
For `C[C@@H]1CN(C(=O)c2cnc(C(C)(C)O)o2)[C@H](c2cc3ccccc3cn2)c2nc[nH]c21` [Example 398, (2-(2-hydroxypropan-2-yl)oxazol-5-yl)((4R,7R)-4-(isoquinolin-3-yl)-7-methyl-6,7-dihydro-1H-imidazo[4,5-c]pyridin-5(4H)-yl)methanone], the AC50 under setting [1] fell in the range of 1000 to 5000 nM.
Turning to `O=C(c1cnn2cc(Br)c(Cl)cc12)N1CCc2[nH]cnc2[C@H]1c1cc2ccccc2cn1` [Example 459, (R)-(6-bromo-5-chloropyrazolo[1,5-a]pyridin-3-yl)(4-(isoquinolin-3-yl)-6,7-dihydro-1H-imidazo[4,5-c]pyridin-5(4H)-yl)methanone], the AC50 under setting [1] is under 500 nM.
For `O=C(CCc1nccs1)N1CCc2[nH]cnc2C1c1ccc2ccccc2n1` (stereo in doubt) [Example 271, (R)-1-(4-(quinolin-2-yl)-6,7-dihydro-1H-imidazo[4,5-c]pyridin-5(4H)-yl)-3-(thiazol-2-yl)propan-1-one], the AC50 under setting [1] was 500 to 1000 nM.
Still for that read-out and setting: next, `CC(O)c1nc(Cl)c(C(=O)N2CCc3[nH]cnc3[C@@H]2c2ccc3ccccc3n2)o1` (single isomer, unassigned) [Example 135]: over 5000 nM.
As to `Cc1nc(-c2cnn(C)c2)oc1C(=O)N1CCc2[nH]cnc2C1c1ncc2ccccc2n1` (stereo not drawn), the AC50 under setting [2] was over 5000 nM.
Take `Cc1nn(C)cc1-c1nnc(C(=O)N2CCc3[nH]cnc3[C@@H]2c2ncc3ccccc3n2)o1` [Example 199, (R)-(5-(1,3-dimethyl-1H-pyrazol-4-yl)-1,3,4-oxadiazol-2-yl)(4-(quinazolin-2-yl)-6,7-dihydro-1H-imidazo[4,5-c]pyridin-5(4H)-yl)methanone]: the half-maximal activity concentration (AC50) under setting [1] was over 5000 nM.
Take `Cn1nc(C(F)F)cc1C(=O)N1CCc2[nH]cnc2C1c1ccc2ccccc2n1` (stereo in doubt) [Example 74, (S)-(3-(difluoromethyl)-1-methyl-1H-pyrazol-5-yl)(4-(quinolin-2-yl)-6,7-dihydro-1H-imidazo[4,5-c]pyridin-5(4H)-yl)methanone]: the AC50 under setting [1] is 1000 to 5000 nM.
Turning to `FC(F)c1nnc(N2CCc3[nH]cnc3C2c2cc3ccccc3cn2)o1` (stereo not drawn), the AC50 under setting [2] was over 5000 nM.
For `O=C(c1nnc(-c2ccccn2)o1)N1CCc2[nH]cnc2[C@@H]1c1ncc2ccccc2n1` [Example 146, (R)-(5-(pyridin-2-yl)-1,3,4-oxadiazol-2-yl)(4-(quinazolin-2-yl)-6,7-dihydro-1H-imidazo[4,5-c]pyridin-5(4H)-yl)methanone], under setting [1], the concentration at half-maximal activity (AC50) lay in the range of 1000 to 5000 nM.
Same read-out and setting: next, `Cn1nccc1C(=O)N1CCc2[nH]cnc2C1c1ccc2ccccc2n1` (stereo in doubt) [Example 94, (S)-(1-methyl-1H-pyrazol-5-yl)(4-(quinolin-2-yl)-6,7-dihydro-1H-imidazo[4,5-c]pyridin-5(4H)-yl)methanone]: 1000 to 5000 nM.
For the compound `C[C@H]1CN(C(=O)c2ocnc2C(F)(F)F)[C@@H](c2cc3ccccc3cn2)c2nc[nH]c21` (single isomer, unassigned), the AC50 entry (A375 R408W cells, 24 hrs with compound, then 20 μM sepiapterin and 800 μM 13C9,15N-Phenylalanine for 4 hours) was “E, E”.
`C[C@H]1CN(C(=O)c2nnc(C(C)(C)C)o2)[C@H](c2cc3ccccc3cn2)c2nc[nH]c21` [Example 428, (5-(tert-butyl)-1,3,4-oxadiazol-2-yl)((4R,7S)-4-(isoquinolin-3-yl)-7-methyl-6,7-dihydro-1H-imidazo[4,5-c]pyridin-5(4H)-yl)methanone]: under setting [1], the half-maximal activity concentration (AC50) lay in the range of 500 to 1000 nM.
Turning to `O=C(c1ccn2ncccc12)N1CCc2[nH]cnc2[C@H]1c1cc2ccccc2cn1` [Example 362, (R)-(4-(isoquinolin-3-yl)-6,7-dihydro-1H-imidazo[4,5-c]pyridin-5(4H)-yl)(pyrrolo[1,2-b]pyridazin-5-yl)methanone], under setting [1], the AC50 is under 500 nM.
With `CC(C)(O)c1nc(C(F)(F)F)c(C(=O)N2CCc3[nH]cnc3C2c2cn3ccccc3n2)o1` (stereo not drawn), the AC50 under setting [2] was in the range of 1000 to 5000 nM.
For `O=C(c1ocnc1C1CC1)N1CCc2[nH]cnc2[C@@H]1c1cn2ccccc2n1` [Example 243, (S)-(4-cyclopropyloxazol-5-yl)(4-(imidazo[1,2-a]pyridin-2-yl)-6,7-dihydro-1H-imidazo[4,5-c]pyridin-5(4H)-yl)methanone], the AC50 under setting [1] lay in the range of 1000 to 5000 nM.
On to `COCc1ncc(C(=O)N2CCc3[nH]cnc3C2c2cn3ccccc3n2)o1` (stereo not drawn), for which, under setting [2], the AC50 was over 5000 nM.
Regarding `COc1ccc(-c2nnc(C(=O)N3CCc4[nH]cnc4[C@@H]3c3ncc4ccccc4n3)o2)nc1` [Example 182, (R)-(5-(5-methoxypyridin-2-yl)-1,3,4-oxadiazol-2-yl)(4-(quinazolin-2-yl)-6,7-dihydro-1H-imidazo[4,5-c]pyridin-5(4H)-yl)methanone], the AC50 under setting [1] lay in the range of 1000 to 5000 nM.
Take `CC(C)(O)c1nnc(C(=O)N2CCc3[nH]cnc3C2c2ccc3ccccc3n2)o1` (stereo in doubt) [Example 27, (S)-(5-(2-hydroxypropan-2-yl)-1,3,4-oxadiazol-2-yl)(4-(quinolin-2-yl)-6,7-dihydro-1H-imidazo[4,5-c]pyridin-5(4H)-yl)methanone]: the AC50 under setting [1] is over 5000 nM.
Take `O=C(c1nnc(CCN2CCOCC2)o1)N1CCc2[nH]cnc2C1c1ccc2ccccc2n1` (stereo not drawn): the AC50 under setting [2] was 1000 to 5000 nM.
For the compound `O=C(C1CC1)N1CCc2[nH]cnc2[C@H]1c1cc2ccccc2nn1` [Example 215, (S)-(4-(cinnolin-3-yl)-6,7-dihydro-1H-imidazo[4,5-c]pyridin-5(4H)-yl)(cyclopropyl)methanone], the AC50 under setting [1] lay within 1000 to 5000 nM.
As to `O=C(c1cnc(-c2cnn(CC(F)(F)F)c2)s1)N1CCc2[nH]cnc2[C@H]1c1cc2ccccc2cn1` [Example 306, (R)-(4-(isoquinolin-3-yl)-6,7-dihydro-1H-imidazo[4,5-c]pyridin-5(4H)-yl)(2-(1-(2,2,2-trifluoroethyl)-1H-pyrazol-4-yl)thiazol-5-yl)methanone], under setting [1], the AC50 is 500 to 1000 nM.
Turning to `O=C(c1cncs1)N1CCc2[nH]cnc2C1c1cn2ccccc2n1` (stereo not drawn), under setting [2], the AC50 is over 5000 nM.
Turning to `O=C(c1nnc(C2CC2)o1)N1CCc2[nH]cnc2C1c1cc2ccccc2nn1` (stereo not drawn), under setting [2], the AC50 is 1000 to 5000 nM.
For `O=C(CC1CC(F)C1)N1CCc2[nH]cnc2C1c1ccc2ccccc2n1` (stereo in doubt) [Example 53, (R)-2-(3-fluorocyclobutyl)-1-(4-(quinolin-2-yl)-6,7-dihydro-1H-imidazo[4,5-c]pyridin-5(4H)-yl)ethanone], under setting [1], the AC50 is under 500 nM.
For the compound `CN1CCN(c2ccc3c(C(=O)N4CCc5[nH]cnc5[C@H]4c4cc5ccccc5cn4)cnn3c2)CC1` [Example 457, (R)-(4-(isoquinolin-3-yl)-6,7-dihydro-1H-imidazo[4,5-c]pyridin-5(4H)-yl)(6-(4-methylpiperazin-1-yl)pyrazolo[1,5-a]pyridin-3-yl)methanone], under setting [1], the AC50 was under 500 nM.
Regarding `Cc1nnc(CCC(=O)N2CCc3[nH]cnc3C2c2cn3ccccc3n2)s1` (stereo not drawn), under setting [2], the AC50 was over 5000 nM.
For `Cc1nc(C(C)(C)O)oc1C(=O)N1CCc2[nH]cnc2[C@H]1c1cc2ccccc2cn1` (single isomer, unassigned), under setting [2], the AC50 was 1000 to 5000 nM.
Consider `C[C@H]1CN(C(=O)c2oc(C(C)(C)O)nc2C2CC2)[C@@H](c2cc3ccccc3cn2)c2nc[nH]c21` [Example 400, (4-cyclopropyl-2-(2-hydroxypropan-2-yl)oxazol-5-yl)((4S,7S)-4-(isoquinolin-3-yl)-7-methyl-6,7-dihydro-1H-imidazo[4,5-c]pyridin-5(4H)-yl)methanone], for which the AC50 under setting [1] was 1000 to 5000 nM.
Take `COCCNc1nnc(C(=O)N2CCc3[nH]cnc3C2c2ccc3ccccc3n2)o1` (stereo not drawn): the AC50 under setting [2] is over 5000 nM.
Take `O=C(c1nnc(N2CCOCC2)o1)N1CCc2[nH]cnc2[C@H]1c1cc2ccccc2cn1` [Example 433, (R)-(4-(isoquinolin-3-yl)-6,7-dihydro-1H-imidazo[4,5-c]pyridin-5(4H)-yl)(5-morpholino-1,3,4-oxadiazol-2-yl)methanone]: the AC50 under setting [1] is 500 to 1000 nM.

What is called AC50 is the concentration at which the activity in the assay is half-maximal.
